Data: patent US11117855B2, “Crystalline form of triethylenetetramine tetrahydrochloride and its pharmaceutical use” (Orphalan S.A., priority 2018, dated 2021)
Values joined by “and” are separate entries in the source; they are usually repeats but may differ in a detail not shown here. Equal values may be shown once. Read-outs that look alike come from different tables or passages of the source.

Tests used:
[1] = 25° C.; for DVS weight gain at high relative humidity: 90% RH and above; for DVS weight above reference weight after sorption/desorption cycle: end of second desorption stage (0-95% RH-0%)
Procedure: Dynamic Vapour Sorption (DVS) Analysis DVS analyses are performed using an SMS DVS Intrinsic analyser (serial number PF 140088) in open aluminium pans at 25° C. with a nitrogen purge gas at 100 ml/min. The stability criterion was a weight change lower than 0.002% on a 5 minute time frame (with a minimum of 10 min and a maximum of 100 min).

[2] = helium pycnometry; for True Density: individual runs; for True Density MEAN: mean of runs
Procedure: Determination of True Density by Helium Pychnometry.
Equipment used: Micromeritics AccuPyc II 1340
Run fill pressure 19.5 psig
Equilibration rate 0.02 psig
Percentage full scale 0.05%
Testing was performed in duplicate.

[3] = Heckel test (compaction simulator, yield pressure, strain rate sensitivity); conditions: for Compact observations / Ejection Force / Peak Force of Upper punch / Yield Pressure: individual runs; for Yield pressure Slow (0.1 mm/s) / Yield pressure fast (300 mm/s): summary mean of runs; for Strain rate sensitivity: yield pressure at 300 mm/s compared to 0.1 mm/s
[4] = Procedure: Onset, Peak Temperatures and Enthalpies Thermogravimetric Analysis (TGA) Thermogravimetric analyses were performed using a Pyris 1 TGA analyser (serial number 537N7052501) in sealed aluminium pans, punctured before analysis, under nitrogen flush at 20 mL/min.
[5] = six months at 40° C. and 75% humidity
Procedure: TETA.4HC obtained in accordance with Reference Example 3 was compressed to form a tablet. The tablet was aged for six months at 40° C. and 75% humidity.

[6] = fast speed 300 mm/s, listed as Ref Example 3
[7] = slow speed 0.1 mm/s, listed as Ref Example 3

## Cl.Cl.Cl.Cl.NCCNCCNCCN [Example 2, triethylenetetramine tetrachloride]
[1]
  DVS weight gain at high relative humidity: ≥ 55.8%
  DVS weight above reference weight after sorption/desorption cycle: almost reaches its reference weight
[1]; listed as Form B
  DVS weight gain at high relative humidity: 50-59%
[2]
  True Density: 1.3693 g/mL and 1.3973 g/mL and 1.3678 g/mL
  True Density MEAN: 1.3686 g/mL
[3]; fast speed 300 mm/s
  Compact strength: 9.83 Kiloponds and 11.58 Kiloponds and 8.88 Kiloponds
  Compact observations: Good shiny
  Ejection Force: 0.441 kN and 0.456 kN and 0.417 kN
  Peak Force of Upper punch: 14.566 kN and 14.542 kN and 14.717 kN
  Yield Pressure: 129.865 Mpa and 129.108 Mpa and 129.861 Mpa
[3]; slow speed 0.1 mm/s
  Compact strength: 12.07 Kiloponds and 7.52 Kiloponds and 9.64 Kiloponds and 9.19 Kiloponds
  Compact observations: Good shiny
  Ejection Force: 0.044 kN and 0.053 kN and 0.080 kN and 0.060 kN
  Peak Force of Upper punch: 20.211 kN and 24.088 kN and 24.175 kN and 23.906 kN
  Yield Pressure: 106.465 Mpa and 117.516 Mpa and 118.116 Mpa and 115.227 Mpa
[3]
  Yield pressure Slow (0.1 mm/s): 114.33 Mpa (±5.39)
  Yield pressure fast (300 mm/s): 129.61 Mpa (±0.44)
  Strain rate sensitivity: 13.4%
[4]; 25-300° C., 10° C./min
  TGA weight loss (total): 10.24%
[4]; 25-300° C., 10° C./min, nitrogen
  TGA weight loss starting temperature: 225 °C
[4]; between 225.0-289.5° C.
  TGA weight loss: 2.64%
[4]; between 289.5-299.0° C.
  TGA weight loss: 7.60%

## Cl.Cl.Cl.Cl.NCCNCCNCCN [Reference Example 3, triethylenetetramine tetrachloride, reference compound]
[1]; listed as Ref Example 3
  DVS weight gain at high relative humidity: ≥ 60.8%
  DVS weight above reference weight after sorption/desorption cycle: 14.4%
[1]; listed as Form A
  DVS weight above reference weight after sorption/desorption cycle: 14-15%
[1]; second desorption stage
  DVS weight above reference weight, minimum value reached: 7.9%
[2]; listed as Ref Example 3
  True Density: 1.3523 g/mL and 1.3431 g/mL
  True Density MEAN: 1.3477 g/mL
[3]; fast speed 300 mm/s
  Compact strength: 4-6 Kiloponds
[3]; [6]
  Compact observations: Good but blistering
  Ejection Force: 0.421 kN and 0.327 kN and 0.381 kN
  Peak Force of Upper punch: 14.644 kN and 14.752 kN and 14.617 kN
  Yield Pressure: 127.197 Mpa and 125.309 Mpa and 129.748 Mpa
  Compact strength: 6.59 Kiloponds and 4.27 Kiloponds and 4.75 Kiloponds
[3]; slow speed 0.1 mm/s
  Compact strength: 6-11 Kiloponds
[3]; [7]
  Compact observations: Good
  Ejection Force: 0.039 kN and −0.007 kN and −0.020 kN
  Peak Force of Upper punch: 20.830 kN and 18.543 kN and 19.570 kN
  Yield Pressure: 101.529 Mpa and 95.501 Mpa and 97.474 Mpa
  Compact strength: 6.41 Kiloponds and 7.45 Kiloponds and 11.17 Kiloponds
[3]; listed as Ref Example 3
  Yield pressure Slow (0.1 mm/s): 98.17 Mpa
  Yield pressure fast (300 mm/s): 127.42 Mpa
  Strain rate sensitivity: 29.8%
[5]
  Tablet appearance after aging: discoloured patches
